Data published in ChEMBL document CHEMBL4627384, “l-Thyroxin and the Nonclassical Thyroid Hormone TETRAC Are Potent Activators of PPARγ” (J Med Chem, 2020).
Activity calls are given as the source filed them. The calls are words filed in the database; no cut-off is given here.

Legend:
[1] = Toxicity in RjOrl:Swiss CD-1 mouse assessed as induction of adverse effect at 10 mg/kg, po administered as single dose; format: organism-based; conditions: in vivo
[2] = Tmax in RjOrl:Swiss CD-1 mouse at 10 mg/kg, po administered as single dose measured after 1 to 24 hrs by LC-MS analysis; format: ADME, organism-based; conditions: in vivo
[3] = Plasma concentration in RjOrl:Swiss CD-1 mouse at 10 mg/kg, po administered as single dose measured after 4 to 24 hrs by LC-MS analysis; format: ADME, organism-based; conditions: in vivo
[4] = Cmax in RjOrl:Swiss CD-1 mouse at 10 mg/kg, po administered as single dose measured after 1 to 24 hrs by LC-MS analysis; format: ADME, organism-based; design: dose 10 mg/kg, route oral; conditions: in vivo
[5] = Half life in RjOrl:Swiss CD-1 mouse at 10 mg/kg, po administered as single dose measured after 1 to 24 hrs by LC-MS analysis; format: ADME, organism-based; conditions: in vivo
[6] = target: T1, Peroxisome proliferator-activated receptor gamma (Homo sapiens, UniProt P37231); experiment: Agonist activity at recombinant human pFA-CMV fused PPARgamma expressed in HEK293T cells transfected with pFR-luciferase plasmid and pRL-SV40 plasmid incubated for 14 to 16 hrs by dual glo luciferase reporter gene assay; format: cell-based, HEK-293T
T1 sequence (P37231 whole entry): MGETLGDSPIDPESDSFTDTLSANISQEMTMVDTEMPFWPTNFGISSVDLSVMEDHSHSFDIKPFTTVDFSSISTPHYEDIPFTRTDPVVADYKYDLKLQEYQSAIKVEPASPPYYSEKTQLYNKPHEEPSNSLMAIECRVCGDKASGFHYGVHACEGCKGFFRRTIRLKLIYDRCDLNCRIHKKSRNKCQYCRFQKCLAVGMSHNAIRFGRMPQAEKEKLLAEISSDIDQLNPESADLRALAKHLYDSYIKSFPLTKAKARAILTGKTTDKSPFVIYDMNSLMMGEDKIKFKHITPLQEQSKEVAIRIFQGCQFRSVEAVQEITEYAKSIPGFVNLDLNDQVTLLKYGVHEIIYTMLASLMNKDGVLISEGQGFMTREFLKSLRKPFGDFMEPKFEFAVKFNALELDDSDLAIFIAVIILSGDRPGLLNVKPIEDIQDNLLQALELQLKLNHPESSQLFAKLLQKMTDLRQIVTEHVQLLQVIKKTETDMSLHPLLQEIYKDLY

[7] = target: T2, Retinoic acid receptor RXR-alpha (Homo sapiens, UniProt P19793); experiment: Agonist activity at recombinant human pFA-CMV fused RXRalpha LBD expressed in HEK293T cells transfected with pFR-luciferase plasmid and pRL-SV40 plasmid incubated for 14 to 16 hrs by dual glo luciferase reporter gene assay; format: cell-based, HEK-293T; conditions: hek-293t
T2 sequence (P19793 whole entry): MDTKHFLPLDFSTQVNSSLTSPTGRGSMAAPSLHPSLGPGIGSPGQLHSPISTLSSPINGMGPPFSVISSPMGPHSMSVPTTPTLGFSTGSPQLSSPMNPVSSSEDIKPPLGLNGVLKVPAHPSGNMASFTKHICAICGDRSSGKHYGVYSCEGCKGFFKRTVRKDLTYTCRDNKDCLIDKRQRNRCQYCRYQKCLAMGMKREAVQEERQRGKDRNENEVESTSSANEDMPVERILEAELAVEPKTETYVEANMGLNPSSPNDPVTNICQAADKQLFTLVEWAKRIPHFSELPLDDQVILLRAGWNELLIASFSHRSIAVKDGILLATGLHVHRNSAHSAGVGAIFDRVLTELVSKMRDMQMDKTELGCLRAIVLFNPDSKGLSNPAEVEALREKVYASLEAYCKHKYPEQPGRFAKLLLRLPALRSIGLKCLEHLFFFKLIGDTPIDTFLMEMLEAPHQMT

[8] = Drug level in human serum; format: ADME, cell-free; conditions: read-out: Drug uptake
[9] = target: T1, Peroxisome proliferator-activated receptor gamma; experiment: Binding affinity to recombinant PPARgamma LBD (unknown origin) by isothermal titration calorimetry
[10] = tested on: HEK-293T; experiment: Activation of renilla luciferase expressed in HEK293T cells at 3 uM incubated for 14 to 16 hrs by reporter gene assay; format: cell-based; conditions: Renilla reniformis
[11] = Drug level in euthyroid human serum by RIA; format: ADME, cell-free; conditions: read-out: Drug uptake

Row | Tmax [2] | concentration [3] | Cmax [4] | half-life [5] | concentration [11] | Compound | Activity [1] | EC50 [6] | EC50 [7] | concentration [8] | Kd [9] | Activity [10]
1 | 1 h | 40 nM | 3180 ng/mL | 19.4 h |  | O=C(O)Cc1cc(Br)c(Oc2cc(I)c(O)c(I)c2)c(I)c1 | Non-Toxic |  |  |  |  | 
2 | 2 h | 40 nM | 4480 ng/mL | 8.7 h |  | N[C@@H](Cc1cc(Br)c(Oc2cc(I)c(O)c(I)c2)c(I)c1)C(=O)O | Non-Toxic | 12.9 µM |  |  |  | 
3 |  |  |  |  |  | N[C@@H](Cc1cc(I)c(Oc2ccc(O)c(I)c2)c(I)c1)C(=O)O [LIOTHYRONINE] |  | 5.8 µM | Not Active | 1.3 to 2.1 nM | 0.71 µM | 
4 |  |  |  |  |  | N[C@@H](Cc1ccc(Oc2cc(I)c(O)c(I)c2)c(I)c1)C(=O)O [REVERSE TRIIODOTHYRONINE] |  | 3.8 µM | Not Active |  | 0.63 µM | 
5 |  |  |  |  | 0.24 nM | O=C(O)Cc1cc(I)c(Oc2ccc(O)c(I)c2)c(I)c1 [TIRATRICOL] |  |  |  |  |  | inactive
